Laboratory results taken from the NIST ThermoML archive (doi:10.1021/je400252p).

Key:
[1] = for mass density / viscosity: 101.33 kPa; for mass density / surface tension liquid-gas / viscosity: Liquid; for mass density: Vibrating tube method; for surface tension liquid-gas: Ring tensiometer
[2] = Molar enthalpy of transition or fusion; settings: Crystal; DSC
[3] = refractive index (Na D-line) (dimensionless); settings: 313 K; 101.33 kPa; Liquid; Standard Abbe refractometry

CCCCCC[N+]12CCN(CC1)CC2.O=S(=O)([N-]S(=O)(=O)C(F)(F)F)C(F)(F)F
[1]
Settings	mass density [kg/m3]	surface tension liquid-gas [mN/m]	viscosity [mPa·s]
313.15 K	1355.15	35.62	–
318.15 K	1350.93	35.33	190.8
323.15 K	1346.72	35.05	138.1
328.15 K	1342.51	34.83	107
333.15 K	1338.29	34.51	87.6

[1], DTA
Settings	Glass transition temperature [°C]	Normal melting temperature [°C]
Crystal	–	36
Glass	-51	–

Settings	Molar enthalpy of transition or fusion [kcal/mol]	refractive index
[2]	2.63	–
[3]	–	1.4379
